Results on eight compounds are retold here after article PMC12246642 (iScience, 2025).

For data set [1], the target named is T1, SARS-CoV-2 Mpro (Severe acute respiratory syndrome coronavirus 2, UniProt P0DTD1). The data set can be described thus: biochemical. Type of data set: biochemical. The note with it: for IC50 / Ki: Kinetics N = 2 (95% CI); for IC50: 4-parameter fit of the same data; for Ki: Morrison fit, 1 nM Mpro, 800 mM citrate buffer, 15 min preincubation.
For a further data set, the system named is SARS-CoV-2. The data set can be described thus: Anti-viral potency: inhibition of in vitro replication of SARS-CoV-2 in A549 cells. In kind it is cell-based. The note with it: for EC50: Severe acute respiratory syndrome coronavirus 2, A549 cells, 10-point titration from 50 μM, triplicate.
Data set [2] has as its target T1, SARS-CoV-2 Mpro. The data set can be described thus: Covalent bond (adduct) formation kinetics by IR-MALDESI intact protein MS. In kind it is binding. The note with it: for kobs (95 % CI) for adduct formation / kobs (95 % CI) Quenched, SPR: SPR buffer; for kobs (95 % CI) for adduct formation: Figure 2; for kobs (95 % CI) Quenched, SPR / kobs (95 % CI) Quenched, Citrate: quenched with 200 μM compound 9, 10 μM compound and Mpro, Figure S5; for kobs (95 % CI) Quenched, Citrate: citrate buffer, only estimated for lack of early timepoints.

Data set [3] deals with T1, SARS-CoV-2 Mpro. Type of data set: binding. The note with it: 40 μM 15N-labeled deuterated Mpro, 20 or 40 μM compound, SPR buffer.
Data set [4] concerns the target T1, SARS-CoV-2 Mpro. In kind it is binding. The note with it: 300 μM 13C-labeled compound, 100 μM Mpro, SPR buffer; for covalent adduct formation with Cys145 seen by 13C NMR: up to 3 h (compound 1) or 6 h (compound 5).
The format of data set [5] is physicochemical. The note with it: 500 μM, monitored for 10 h at 16-min intervals.
The mark [6] stands for this setting: first determination, 4-parameter IC50 fit.
The mark [7] stands for this setting: second determination, 4-parameter IC50 fit.

Where a SMILES comes first, the peptide text is derived from it. [ ]: non-standard residue; d: D form. The star is where a group is joined. Met(O2) = CS(=O)(=O)CC[C@H](N)C(=O)O; Ala(cPr) = N[C@@H](CC1CC1)C(=O)O; Cbz = O=C(OCc1ccccc1)*

In the case of `COc1cccc2[nH]c(C(=O)N[C@@H](CC3CC3)C(=O)N[C@H](C=O)C[C@@H]3CCNC3=O)cc12` [Compound 1, N-((S)-3-cyclopropyl-1-oxo-1-(((S)-1-oxo-3-((S)-2-oxopyrrolidin-3-yl)propan-2-yl)amino)propan-2-yl)-4-methoxy-1H-indole-2-carboxamide], the “Hill slope” value on SARS-CoV-2 Mpro [1] (4-parameter IC50 refit) is “greater than 1”; at SARS-CoV-2 Mpro [1] (setting [6]), 3.1; at SARS-CoV-2 Mpro [1] (setting [7]) it was 2.0. In the data set on SARS-CoV-2, this compound came in with an EC50 of 6.2 µM. The figures for the “kobs (95 % CI) for adduct formation” value on SARS-CoV-2 Mpro [2] (Ratio Cmpd:Mpro 1:1), at SARS-CoV-2 Mpro [2] (Ratio Cmpd:Mpro 2:1) and at SARS-CoV-2 Mpro [2] (Ratio Cmpd:Mpro 5:1) were 0.11 (0.04919 to 0.2232), 0.34 (0.1598 to 0.8874) and 2.0 (1.597 to 2.492), respectively. Besides, the “kobs (95 % CI) Quenched, SPR” value at SARS-CoV-2 Mpro [2] stood at 0.13 Min -1. In addition, on SARS-CoV-2 Mpro [2], the “kobs (95 % CI) Quenched, Citrate” value is recorded as 0.31 Min -1. On SARS-CoV-2 Mpro [3], the “exchange regime of binding on the NMR timescale” value was “slow exchange regime”. On SARS-CoV-2 Mpro [4] (extended incubation), the “non-covalently bound form seen by 13C NMR” value is “stably bound to Mpro non-covalently”. For the same compound, the “covalent adduct formation with Cys145 seen by 13C NMR” value on SARS-CoV-2 Mpro [4] is listed as “thiohemiacetal formation”. Besides, the “epimerization at P1: αH resonance in D2O SPR buffer” value in data set [5] was “no change in intensity”.

Consider `O=C[C@H](C[C@@H]1CCNC1=O)NC(=O)[C@H](CC1CC1)NC(=O)OCc1ccccc1` [Compound 2, benzyl ((S)-3-cyclopropyl-1-oxo-1-(((S)-1-oxo-3-((S)-2-oxopyrrolidin-3-yl)propan-2-yl)amino)propan-2-yl)carbamate], for which the “Hill slope” value at SARS-CoV-2 Mpro [1] (4-parameter IC50 refit) was “greater than 1”; on SARS-CoV-2 Mpro [1] (setting [6]) it was 2.7; at SARS-CoV-2 Mpro [1] (setting [7]), 2.5. In the data set on SARS-CoV-2, this compound yielded an EC50 of 3.3 µM. Moreover, at SARS-CoV-2 Mpro [2], the “kobs (95 % CI) Quenched, SPR” value is on record as 0.49 Min -1. The “kobs (95 % CI) Quenched, Citrate” value at SARS-CoV-2 Mpro [2] is 0.85 Min -1.

As for `COc1cccc2[nH]c(C(=O)N[C@@H](CC3CC3)C(=O)N[C@H](C=O)CCS(C)(=O)=O)cc12` [Compound 3, N-((S)-3-cyclopropyl-1-(((S)-4-(methylsulfonyl)-1-oxobutan-2-yl)amino)-1-oxopropan-2-yl)-4-methoxy-1H-indole-2-carboxamide], the “Hill slope” value on SARS-CoV-2 Mpro [1] (4-parameter IC50 refit), at SARS-CoV-2 Mpro [1] (setting [6]) and on SARS-CoV-2 Mpro [1] (setting [7]) was 1.5 each time. The “kobs (95 % CI) Quenched, SPR” value on SARS-CoV-2 Mpro [2] worked out at 0.18 Min -1. In addition, at SARS-CoV-2 Mpro [2], the “kobs (95 % CI) Quenched, Citrate” value is 0.30 Min -1.

Regarding `CS(=O)(=O)CC[C@@H](C=O)NC(=O)[C@H](CC1CC1)NC(=O)OCc1ccccc1` [Compound 4, benzyl ((S)-3-cyclopropyl-1-(((S)-4-(methylsulfonyl)-1-oxobutan-2-yl)amino)-1-oxopropan-2-yl)carbamate] (Cbz-[Ala(cPr)]-[Met(O2)]-aldehyde), the Hill slope on SARS-CoV-2 Mpro [1] (setting [6]) is recorded as 1.0. At SARS-CoV-2 Mpro [1] (setting [7]), the Hill slope stood at 1.0. For the same compound, the concentration giving a half-maximal response (EC50) in the data set on SARS-CoV-2 was determined as 22 µM. Further, at SARS-CoV-2 Mpro [2], the “kobs (95 % CI) Quenched, SPR” value is 0.29 Min -1 and the “kobs (95 % CI) Quenched, Citrate” value was 0.35 Min -1.

As for `COc1cccc2[nH]c(C(=O)N[C@@H](CC3CC3)C(=O)N[C@H](C#N)C[C@@H]3CCNC3=O)cc12` [Compound 5, N-((S)-1-(((S)-1-cyano-2-((S)-2-oxopyrrolidin-3-yl)ethyl)amino)-3-cyclopropyl-1-oxopropan-2-yl)-4-methoxy-1H-indole-2-carboxamide], the Hill slope was found to be 1.0 on SARS-CoV-2 Mpro [1] (setting [6]) and 1 on SARS-CoV-2 Mpro [1] (setting [7]). Also, the “decrease of cellular EC50 versus the Ki determined in citrate buffer” value in the data set with SARS-CoV-2 (EC50 in A549 cells versus Ki) is 760 fold. In the data set with SARS-CoV-2, this compound displayed a concentration giving a half-maximal response (EC50) of 3.2 µM. For the same compound, the entries for the “kobs (95 % CI) for adduct formation” value at SARS-CoV-2 Mpro [2] (Ratio Cmpd:Mpro 1:1), on SARS-CoV-2 Mpro [2] (Ratio Cmpd:Mpro 2:1) and at SARS-CoV-2 Mpro [2] (Ratio Cmpd:Mpro 5:1) were 0.33 (0.2393 to 0.4596), 0.40 (0.2513 to 0.6949) and 1.6 (0.7658 to 3.045), respectively. Also, on SARS-CoV-2 Mpro [2], the “kobs (95 % CI) Quenched, SPR” value is 1.2 Min -1. The “kobs (95 % CI) Quenched, Citrate” value on SARS-CoV-2 Mpro [2] is listed as 0.47 Min -1. In addition, the “exchange regime of binding on the NMR timescale” value at SARS-CoV-2 Mpro [3] is “fast exchange regime”. In addition, on SARS-CoV-2 Mpro [4], the “covalent adduct formation with Cys145 seen by 13C NMR” value is listed as “no new peaks emerged to suggest thioimidate formation”.

Take `N#C[C@H](C[C@@H]1CCNC1=O)NC(=O)[C@H](CC1CC1)NC(=O)OCc1ccccc1` [Compound 6, benzyl ((S)-1-(((S)-1-cyano-2-((S)-2-oxopyrrolidin-3-yl)ethyl)amino)-3-cyclopropyl-1-oxopropan-2-yl)carbamate]: at SARS-CoV-2 Mpro [1] (setting [6]), the Hill slope is recorded as 1.1. At SARS-CoV-2 Mpro [1] (setting [7]), this compound displayed a Hill slope of 1.0. Further, the EC50 in the data set with SARS-CoV-2 came to 13 µM. Also, on SARS-CoV-2 Mpro [2], the “kobs (95 % CI) Quenched, SPR” value is 0.08 Min -1 and the “kobs (95 % CI) Quenched, Citrate” value is 0.34 Min -1.

Compound `COc1cccc2[nH]c(C(=O)N[C@@H](CC3CC3)C(=O)N[C@H](C#N)CCS(C)(=O)=O)cc12` [Compound 7, N-((S)-1-(((S)-1-cyano-3-(methylsulfonyl)propyl)amino)-3-cyclopropyl-1-oxopropan-2-yl)-4-methoxy-1H-indole-2-carboxamide] returned a Hill slope on SARS-CoV-2 Mpro [1] (setting [6]) of 0.6. This compound yielded an EC50 in the data set on SARS-CoV-2 of over 50 µM.

For `CS(=O)(=O)CC[C@@H](C#N)NC(=O)[C@H](CC1CC1)NC(=O)OCc1ccccc1` [Compound 8, benzyl ((S)-1-(((S)-1-cyano-3-(methylsulfonyl)propyl)amino)-3-cyclopropyl-1-oxopropan-2-yl)carbamate], the IC50 against SARS-CoV-2 Mpro [1] (first determination) and on SARS-CoV-2 Mpro [1] (second determination) was over 12.5 µM each time. Further, the inhibition constant Ki at SARS-CoV-2 Mpro [1] (first determination) and at SARS-CoV-2 Mpro [1] (second determination) was over 12.5 µM in each case.
